Measurements: patent US20090143279A1 (priority 2007, published 2009)
Where two headings read alike, the source gives them in different places.

Tests used:
[1] = test system: OXPHOS gene expression; type: cell-based, mouse; conditions: Conc 20 μM; for GE-HTS (composite Z-score): normalized score vs mock-treated (DMSO) wells
[2] = test system: nuOXPHOS transcripts; type: cell-based, mouse; conditions: Conc 20 μM; for nucOX (composite Z-score): normalized score vs mock-treated (DMSO) wells
[3] = test system: mtOXPHOS transcripts; type: cell-based, mouse; conditions: Conc 20 μM; for mitoOX (composite Z-score): normalized score vs mock-treated (DMSO) wells
[4] = test system: reactive oxygen species; type: cell-based, mouse; conditions: Conc 20 μM; for ROS (composite Z-score): normalized score vs mock-treated (DMSO) wells
[5] = test system: cellular dehydrogenase activity; conditions: Conc 20 μM; for MTT (composite Z-score): normalized score vs mock-treated (DMSO) wells
[6] = test system: mitochondrial membrane potential; type: cell-based, mouse; conditions: Conc 20 μM; for ΔΨm (composite Z-score): normalized score vs mock-treated (DMSO) wells
[7] = test system: cytochrome c; type: cell-based, mouse; conditions: Conc 20 μM; for cyt c (composite Z-score): normalized score vs mock-treated (DMSO) wells
[8] = test system: C2C12 myotubes; conditions: Conc 20 μM; for Viability (composite Z-score): normalized score vs mock-treated (DMSO) wells
[9] = composite Z-score vs mock-treated (DMSO) wells
[10] = normalized composite Z-score vs mock-treated (DMSO) wells
[11] = composite Z-score vs DMSO wells

Q: With `CCC(C)C(=O)OC1[C@@H]2CC3=C4CC(=O)O[C@@H](c5ccoc5)[C@]4(C)CCC3[C@@](C)(C2=O)[C@@H](CC(=O)OC)C1(C)C` (stereo partly drawn) [khayasin] as the molecule, how does the GE-HTS [1, 9] read?
A: Its GE-HTS is 0.671.

Q: And the nucOX [2, 9]?
A: Its nucOX is 0.798.

Q: And the mitoOX [3, 9]?
A: The mitoOX was 0.326.

Q: And the ROS [4, 9]?
A: Its ROS is 0.528.

Q: What about the MTT [5, 9] of the same molecule?
A: Its MTT is −0.812.

Q: What about the ΔΨm [6, 9] of the same molecule?
A: The ΔΨm was 0.007.

Q: And the cyt c [7, 9]?
A: The cyt c was −0.281.

Q: And the Viability [8, 9]?
A: The Viability was −0.077.

Q: Which results are given for `CC(=O)O[C@H]1C[C@@H](OC(C)=O)C(C)(C)[C@@H]2C[C@@H](OC(C)=O)[C@]3(C)[C@H](CC[C@@]4(C)[C@H](c5ccoc5)OC(=O)[C@H]5O[C@@]534)[C@@]12C` [khivorin]?
A: GE-HTS [1, 9]: −0.144; nucOX [2, 9]: −0.022; mitoOX [3, 9]: −0.423; ROS [4, 9]: 0.187; MTT [5, 9]: −1.421; ΔΨm [6, 9]: −0.145; cyt c [7, 9]: 0.229; Viability [8, 9]: 0.807

Q: With `OC[C@H]1O[C@@H](n2cnc3c(NCc4ccco4)ncnc32)[C@H](O)[C@@H]1O` [kinetin riboside] as the molecule, how does the GE-HTS ([1]; composite Z-score vs DMSO) read?
A: Its GE-HTS is 0.882.

Q: What about the nucOX ([2]; composite Z-score vs DMSO) of the same molecule?
A: Its nucOX is 0.853.

Q: What about the mitoOX ([3]; composite Z-score vs DMSO) of the same molecule?
A: The mitoOX was 0.750.

Q: And the ROS ([4]; composite Z-score vs DMSO)?
A: Its ROS is −2.722.

Q: What about the MTT ([5]; composite Z-score vs DMSO) of the same molecule?
A: Its MTT is −4.309.

Q: What about the ΔΨm ([6]; composite Z-score vs DMSO) of the same molecule?
A: The ΔΨm was −1.350.

Q: And the cyt c ([7]; composite Z-score vs DMSO)?
A: Its cyt c is −2.612.

Q: What about the Viability ([8]; composite Z-score vs DMSO) of the same molecule?
A: The Viability was −1.883.

Q: Which results are given for `COc1ccc(-c2coc3cc(O)ccc3c2=O)c(OC)c1O` [koparin 2′-methyl ether]?
A: GE-HTS ([1]; composite Z-score vs DMSO): −1.151; nucOX ([2]; composite Z-score vs DMSO): −1.461; mitoOX ([3]; composite Z-score vs DMSO): −0.309; ROS ([4]; composite Z-score vs DMSO): 0.126; MTT ([5]; composite Z-score vs DMSO): −0.532; ΔΨm ([6]; composite Z-score vs DMSO): −0.442; cyt c ([7]; composite Z-score vs DMSO): 0.007; Viability ([8]; composite Z-score vs DMSO): 0.024

Q: How did the “GE-HTS (composite Z-score)” value [1] turn out when `COc1c(O)cc2c(-c3ccccc3)cc(=O)oc2c1OC` [kuhlmannin] was run?
A: Its value is 0.624.

Q: What about the “nucOX (composite Z-score)” value [2] of the same molecule?
A: The value was 0.646.

Q: And the “mitoOX (composite Z-score)” value [3]?
A: The value was 0.408.

Q: And the “ROS (composite Z-score)” value [4]?
A: Its value is 0.443.

Q: And the “MTT (composite Z-score)” value [5]?
A: Its value is −0.487.

Q: What about the “ΔΨm (composite Z-score)” value [6] of the same molecule?
A: Its value is 0.133.

Q: What about the “cyt c (composite Z-score)” value [7] of the same molecule?
A: Its value is −0.170.

Q: What about the “Viability (composite Z-score)” value [8] of the same molecule?
A: The value was 0.333.

Q: Which results are given for `NCCC(=O)c1ccccc1N` [kynuramine]?
A: GE-HTS [1, 10]: 0.070; nucOX [2, 10]: 0.093; mitoOX [3, 10]: 0.045; ROS [4, 10]: 1.180; MTT [5, 10]: −1.264; ΔΨm [6, 10]: −0.127; cyt c [7, 10]: 1.161; Viability [8, 10]: 0.319

Q: `Nc1ccccc1C(=O)CC(N)C(=O)O` (stereo not drawn) [kynurenine] was tested. Which GE-HTS [1, 10] did it give?
A: Its GE-HTS is −0.039.

Q: And the nucOX [2, 10]?
A: The nucOX was −0.088.

Q: And the mitoOX [3, 10]?
A: The mitoOX was 0.069.

Q: And the ROS [4, 10]?
A: The ROS was 1.941.

Q: What about the MTT [5, 10] of the same molecule?
A: The MTT was −0.912.

Q: And the ΔΨm [6, 10]?
A: The ΔΨm was −0.058.

Q: And the cyt c [7, 10]?
A: Its cyt c is 0.162.

Q: What about the Viability [8, 10] of the same molecule?
A: The Viability was −0.110.

Q: What does the source list for `C[C@@H]1CC[C@H]2[C@](C)(CO)[C@@H](O)CC[C@]2(C)[C@@]12CC[C@@](CO)(CCO)O2` [lagochilin]?
A: GE-HTS (composite Z-score) [1]: 0.002; nucOX (composite Z-score) [2]: −0.036; mitoOX (composite Z-score) [3]: 0.128; ROS (composite Z-score) [4]: 0.962; MTT (composite Z-score) [5]: −0.238; ΔΨm (composite Z-score) [6]: 0.277; cyt c (composite Z-score) [7]: −0.862; Viability (composite Z-score) [8]: 0.043

Q: `CC(=O)O[C@H]1C[C@H](O[C@H]2[C@@H](O)C[C@H](O[C@H]3[C@@H](O)C[C@H](O[C@H]4CC[C@@]5(C)[C@H](CC[C@@H]6[C@@H]5C[C@@H](O)[C@]5(C)[C@@H](C7=CC(=O)OC7)CC[C@]65O)C4)O[C@@H]3C)O[C@@H]2C)O[C@H](C)[C@H]1O[C@@H]1O[C@H](CO)[C@@H](O)[C@H](O)[C@H]1O` [lanatoside C] was tested. Which GE-HTS [1, 11] did it give?
A: The GE-HTS was −0.931.

Q: What about the nucOX [2, 11] of the same molecule?
A: The nucOX was −0.844.

Q: What about the mitoOX [3, 11] of the same molecule?
A: The mitoOX was −0.935.

Q: And the ROS [4, 11]?
A: Its ROS is −0.033.

Q: And the MTT [5, 11]?
A: The MTT was −0.887.

Q: And the ΔΨm [6, 11]?
A: The ΔΨm was −1.105.

Q: And the cyt c [7, 11]?
A: The cyt c was 0.664.

Q: And the Viability [8, 11]?
A: Its Viability is −0.704.

Q: With `CC(C)=CCC1=C(O)C(=O)c2ccccc2C1=O` [lapachol] as the molecule, how does the GE-HTS [1, 11] read?
A: The GE-HTS was −1.316.

Q: And the nucOX [2, 11]?
A: Its nucOX is −1.308.

Q: What about the mitoOX [3, 11] of the same molecule?
A: Its mitoOX is −1.077.

Q: What about the ROS [4, 11] of the same molecule?
A: The ROS was −0.544.

Q: And the MTT [5, 11]?
A: Its MTT is −1.211.

Q: And the ΔΨm [6, 11]?
A: The ΔΨm was 0.035.

Q: What about the cyt c [7, 11] of the same molecule?
A: The cyt c was 0.325.

Q: What about the Viability [8, 11] of the same molecule?
A: The Viability was −0.409.

Q: How did the “GE-HTS (composite Z-score)” value [1] turn out when `C=C[C@@](C)(O)CC[C@H]1C(=C)C[C@H](O)[C@H]2C(C)(C)CCC[C@]12C` [larixol] was run?
A: Its value is −0.507.

Q: And the “nucOX (composite Z-score)” value [2]?
A: Its value is −0.466.

Q: And the “mitoOX (composite Z-score)” value [3]?
A: The value was −0.552.

Q: And the “ROS (composite Z-score)” value [4]?
A: The value was 1.068.

Q: And the “MTT (composite Z-score)” value [5]?
A: The value was −0.221.

Q: And the “ΔΨm (composite Z-score)” value [6]?
A: Its value is −0.141.

Q: What about the “cyt c (composite Z-score)” value [7] of the same molecule?
A: Its value is 0.944.

Q: And the “Viability (composite Z-score)” value [8]?
A: Its value is 0.085.

Q: With `CC[C@@H](C(=O)[C@@H](C)[C@@H](O)[C@H](C)CCc1ccc(C)c(O)c1C(=O)O)[C@H]1O[C@](CC)([C@H]2CC[C@](O)(CC)[C@H](C)O2)C[C@@H]1C` [lasalocid, reference compound] as the molecule, how does the GE-HTS ([1]; composite Z-score vs DMSO) read?
A: The GE-HTS was −1.524.

Q: And the nucOX ([2]; composite Z-score vs DMSO)?
A: Its nucOX is 0.274.

Q: What about the mitoOX ([3]; composite Z-score vs DMSO) of the same molecule?
A: Its mitoOX is −4.908.

Q: And the ROS ([4]; composite Z-score vs DMSO)?
A: Its ROS is −2.993.

Q: What about the MTT ([5]; composite Z-score vs DMSO) of the same molecule?
A: The MTT was −1.771.

Q: What about the ΔΨm ([6]; composite Z-score vs DMSO) of the same molecule?
A: The ΔΨm was −1.178.

Q: What about the cyt c ([7]; composite Z-score vs DMSO) of the same molecule?
A: The cyt c was −1.690.

Q: What about the Viability ([8]; composite Z-score vs DMSO) of the same molecule?
A: Its Viability is −1.090.
